In one experiment the test system is human PPARγ. Kind of experiment: PPARγ agonist screening system, PPRE luciferase reporter in CV-1 cells (Example 9). Format: cell-based. The following applies: for PPARγ/RXR alpha activating activity compared to that with 1 μM pioglitazone: at a concentration of 10 μm; for PPARγ/RXR alpha activating activity (relative luciferase activity): concentrations of 1, 5, 10, and 50 μM, 48 hours. An excerpt: In order to construct a human PPARγ expression plasmid, a PPARγ ORF was cloned from the human heart cDNA library (Gibco). After the sequence was confirmed, the cloned ORF was ligated to the NheI-SalI site of the expression vector pCI neo (Promega). The sequences of primers used for the cloning were as follows: […]
Next, in order to construct a reporter plasmid, oligo DNAs having 3 copies of PPRE was constructed and inserted at the KpnI-BglII site of the firefly luciferase reporter vector pGL3-promoter vector (Promega), after which the sequences were confirmed. The sequences of oligo-DNAs containing PPRE are as follows:
CV-1 cells were transfected with the above-mentioned plasmid along with the renilla luciferase reporter vector pRL-SV40 vector for compensation (Promega) using Lipofect AMINE (Gibco). The CV-1 cells used were cultured at a concentration of 5×10^4 cells/ml in 2 ml of DMEM (Gibco) supplemented with 10% fetal calf serum (Gibco) and penicillin-streptomycin (10000 units and 1 mg/ml, respectively; Gibco) on a 12-well plate at 37° C. in an atmosphere of 5% CO2 on the day before transfection. After the transfection, cells for the positive control were cultured in the abovementioned DMEM medium containing 1 μm pioglitazone (Takeda). After cultivating for 48 hours, the cells were recovered and the lysate was prepared using a Dual-Luciferase reporter assay system (Promega) to measure firefly luciferase and renilla luciferase activity using a luminometer (Luminous CT-9000D, DIA-IATRON). Relative luciferase activity was obtained by dividing the value for firefly luciferase activity by the value for renilla luciferase activity.
Background: Reporter assays use an easily measured gene product as a stand-in for the process of interest.

In experiment [1] the target is T1, fused protein of PPARγ with yeast Gal4 protein (Homo sapiens, UniProt P37231).
T1 construct: 204a.a.-505a.a) was cloned; expressed in transfected cells; host or cells: CV-1 cells
T1 sequence (P37231 204-505): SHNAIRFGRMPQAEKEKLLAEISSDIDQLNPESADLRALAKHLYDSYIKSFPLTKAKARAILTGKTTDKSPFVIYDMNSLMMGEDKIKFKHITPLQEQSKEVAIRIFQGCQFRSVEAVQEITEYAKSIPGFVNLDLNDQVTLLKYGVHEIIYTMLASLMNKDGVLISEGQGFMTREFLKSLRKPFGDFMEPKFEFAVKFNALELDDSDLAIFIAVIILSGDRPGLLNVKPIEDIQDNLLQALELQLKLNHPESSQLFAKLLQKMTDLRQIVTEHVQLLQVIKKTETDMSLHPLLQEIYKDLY
Kind of experiment: PPARγ agonist screening system consisting of a fused protein, Gal4 luciferase reporter in CV-1 cells (Example 10). Format: cell-based. The following applies: humulone compounds at 1, 3, and 10 μM, 48 hours. An excerpt: In order to construct a human PPARγ expression plasmid, a PPARγ ligand binding domain (LBD; 204a.a.-505a.a) was cloned from the human heart cDNA library (Gibco). After the sequence was confirmed, the cloned ORF was ligated to the BamHI-Kpn1 site of the expression vector pBind (Promega) to construct the expression vector pGR-Gal4-PPARγ which expresses a fused protein of PPARγ with yeast Gal4 protein. The sequences of primers used for the cloning are as follows: […]
Next, an N terminal sequence (1a.a-76a.a) of the human glucocorticoid receptor (GR) was ligated to the N-terminal of the Gal4 region of pBind so that the reading frame coincided with Gal4. The GR was cloned from the heart cDNA library (Gibco) using PCR. The sequences of primers used for the cloning are as follows: […]
As a reporter plasmid, firefly luciferase expression vector pG5luc (Promega) having 5 copies of the Gal4 binding site introduced into the promoter region was used. CV-1 cells were transfected with the pGR-Gal4-PPARγ and the pG5luc using Lipofect AMINE (Gibco). After the transfection, the medium was replaced with a medium (DMEN, Gibco) with addition of a test sample or control (pioglitazone), and cells were recovered after cultivation for 48 hours. After the cell recovery, cell lysate was prepared using a Dual-Luciferase reporter assay system (Promega) to measure firefly luciferase activity using a luminometer (Luminous CT-9000D, DIA-IATRON). Further, the protein concentration of the cell lysate was measured using a Dc Protein assay (BIO-RAD) to standardize the value of firefly luciferase activity for the protein concentration. The result was expressed as a relative value by setting the value of the negative control to be 1.

The subject of experiment [2] is C57BL/6 mice fed high fat diet. Kind of experiment: Oral glucose tolerance test in mice with high fat diet-induced insulin resistance (Example 15). It counts as in vivo. As for the experimental part:
C57BL/6 mice were fed the high fat diet shown in Example 8 for 12 weeks to induce insulin resistance and then orally administered with the water soluble hop extract for 10 consecutive days (100 and 330 mg/kg/day). After completion of the administration, animals were fasted for 16 hours and then subjected to an oral glucose tolerance test (OGTT). […] After completion of the administration, animals were fasted for 16 hours and then subjected to an oral glucose tolerance test (OGTT). In OGTT, after blood sampling and blood sugar measurement, 1 g/kg of aqueous glucose solution was administered (at time zero), after which blood sampling and blood sugar measurement were carried out at 15, 30, and 60 minutes and blood sugar measurement was carried out at 120 minutes. Change with time in the blood insulin level was measured using an insulin measuring kit (Morinaga Seikagaku Institute).

A further experiment has as its system C57BL/6 mice (females). Kind of experiment: Improving effect of fractionated lupulone on lipid metabolism in mice (Example 14). Format: in vivo. As to the method:
Improving effect of a fractionated lupulone on lipid metabolism was evaluated using C57BL/6 mice (females). Namely, lupulone was purified from hop pellets (CAS pellets, a product of Saaz, Czech Republic). About 2.5 kg of hop pellets were extracted with 4 L of ethyl acetate 3 times and the extract was concentrated under the reduced pressure to obtain a dark green extract (329.17 g). A portion of the extract (262.7 g) was applied on a silica gel column for fractionation. Chromatography was carried out using a stepwise elution with a hexane-ethyl acetate mixed solution to obtain 15 fractions. The third fraction (41.8 g) was applied on a silica gel column for refractionation and a fraction eluted with a hexane:ethyl acetate (20:1) solution was recrystallized to obtain lupulone (1.88 g, white needle crystals, yield: about 0.094%). Further, 5-week-old C57BL/6NCrj female mice (8 per group) (Japan Charles River) were fed CE2 (Japan Clea) and water for 1 week ad libitum. Then, the animals were divided into 2 groups, i.e., a group fed AIN76A (described in Example 2) with addition of 0.2% cholesterol and 0.3% cellulose (referred to as “group C” hereinafter) and a group fed AIN76A with addition of 0.2% cholesterol and 0.3% lupulone (referred to as “group L” hereinafter). The diets were prepared and administered according to the methods described in Example 2. One week after feeding the test diets, the animals were dissected under non-fasting conditions.

Where [3] appears, read: purified isocohumulone 10 and 30 mg/kg/day oral, 10 days.

Experimental findings from patent US20100080862A1, “COMPOSITIONS AND FOODS FOR IMPROVING LIPID METABOLISM” (Kirin Beer Kabushiki Kaisha, priority 2002, published 2010) are described below.

`CC(C)=CCC1=C(O)C(O)(CC=C(C)C)C(=O)C(C(=O)C(C)C)=C1O` (stereo not drawn) [cohumulones, cohumulone]: in the experiment with human PPARγ, the “PPARγ/RXR alpha activating activity compared to that with 1 μM pioglitazone” value is listed as “almost equivalent” and the “PPARγ/RXR alpha activating activity (relative luciferase activity)” value is “exhibited the activity”. The “PPARγ activating activity (firefly luciferase, relative to negative control)” value in experiment [1] was “activity was confirmed”.

With `CC(C)=CCC1=C(O)[C@](O)(CC=C(C)C)C(=O)C(C(=O)CC(C)C)=C1O` [humulones, humulone], in the experiment on human PPARγ, the “PPARγ/RXR alpha activating activity compared to that with 1 μM pioglitazone” value is recorded as “almost equivalent” and the “PPARγ/RXR alpha activating activity (relative luciferase activity)” value is given as “exhibited the activity”. Moreover, the “PPARγ activating activity (firefly luciferase, relative to negative control)” value in experiment [1] is “activity was confirmed”.

As to `CCC(C)C(=O)C1=C(O)C(O)(C(=O)CC=C(C)C)C(CC=C(C)C)C1=O` (stereo not drawn) [isoadhumulones, isoadhumulone], in the experiment on human PPARγ, the “PPARγ/RXR alpha activating activity compared to that with 1 μM pioglitazone” value is given as “almost equivalent” and the “PPARγ/RXR alpha activating activity (relative luciferase activity)” value is reported as “exhibited the activity”.

For the compound `CC(C)=CCC(=O)C1(O)C(O)=C(C(=O)C(C)C)C(=O)C1CC=C(C)C` (stereo not drawn) [isocohumulones, isocohumulone], in the experiment with human PPARγ, the “PPARγ/RXR alpha activating activity compared to that with 1 μM pioglitazone” value was “almost equivalent” and the “PPARγ/RXR alpha activating activity (relative luciferase activity)” value was “exhibited the activity”. Moreover, the “PPARγ activating activity (firefly luciferase, relative to negative control)” value in experiment [1] is on record as “activity was confirmed”. For the same compound, the “insulin resistance (blood insulin concentration upon OGTT)” value in experiment [2] (oral, 10 consecutive days, water soluble extract 100 and 330 mg/kg/day, purified isocohumulone 10 and 30 mg/kg/day) is recorded as “amelioration”. Moreover, the “glucose tolerance (blood sugar level upon OGTT)” value in experiment [2] (oral, 10 consecutive days, water soluble extract 100 and 330 mg/kg/day, purified isocohumulone 10 and 30 mg/kg/day, 1 g/kg glucose after 16 h fasting) is “Amelioration”. In experiment [2] (setting [3]), the “insulin concentration before the administration (of glucose)” value is on record as “significantly decreased” and the “insulin concentration thereafter (after glucose administration)” value is listed as “tended to keep decreasing”.

Turning to `CC(C)=CCC(=O)C1(O)C(O)=C(C(=O)CC(C)C)C(=O)C1CC=C(C)C` (stereo not drawn) [isohumulones, isohumulone], in the experiment with human PPARγ, the “PPARγ/RXR alpha activating activity compared to that with 1 μM pioglitazone” value is listed as “almost equivalent” and the “PPARγ/RXR alpha activating activity (relative luciferase activity)” value is listed as “exhibited the activity”. Besides, in experiment [1], the “PPARγ activating activity (firefly luciferase, relative to negative control)” value was “activity was confirmed”.

With `CC(C)=CCC1=C(O)C(CC=C(C)C)(CC=C(C)C)C(=O)C(C(=O)CC(C)C)=C1O` [lupulone], the “cholesterol content per g of liver” value in the experiment with C57BL/6 mice (females) (group L 0.3% lupulone in AIN76A + 0.2% cholesterol, one week, non-fasting) is reported as “significant decrease”. Further, in the experiment with C57BL/6 mice (females) (group L 0.3% lupulone in diet), the body weight entry was “significant decrease” and the “body weight gain per calorie intake” value was “significantly reduced”.
